Results from patent US8791100B2 (Novartis AG, priority 2010, dated 2014).

Assays:
[1] = tested on: peripheral lymphocyte counts; test: Measurement of circulating lymphocytes after oral administration (mice); format: in vivo; conditions: Mus musculus, C57BL/6NCrl mice, 30 mg/kg p.o., 24 hours, vs mean counts of untreated animals, mean ± STDEV, read-out: Residual Lymphocyte Counts 24 hours after p.o. dosing
Protocol: The compounds of the invention, e.g. compounds of formula (I) typically induce the depletion of blood lymphocyte as may be determined in the assay described below. Moreover, compounds of the invention, e.g. compounds of formula (I) are typically efficacious in the said assay also when administered via the per oral route of administration.
Measurement of Circulating Lymphocytes:
The test compounds (or salts thereof) are dissolved in a vehicle such as water, saline, PEG (polyethylene glycol) 200, or PBS (phosphate buffered saline). Adult mice (C57BU6NCrl strain, female, 18-20 g) or rats (Lewis strain, male, 6-12 weeks old) are administered up to 60 mg/kg of the test compounds in 10 ml/kg (C57BU6NCrl mice) or 2 ml/kg (Lewis rats) vehicle via per oral application. The vehicle or a reference salt and FTY720 (0.3 mg/kg) are used as negative and positive controls, respectively. Blood is collected from the sublingual vein at single time points, e.g. 14 or 24 hours after the test compound administration, under short isoflurane anesthesia. Two to three animals are used in each group. Whole blood samples are subjected to hematology analysis. Peripheral lymphocyte counts are determined using an automated analyzer. The Haemathology System uses a combination of light scatter, cytochemical staining and nuclear density on two independent channels to measure the total and differential white cell counts. The reduction of lymphocytes provoked by each test compound is calculated by comparing the lymphocyte counts measured after each treatment to the mean lymphocyte counts measured in five to eight untreated mice or rats, respectively. The data are presented as mean±STDEV.

human S1P1 receptors = human S1P1 receptors (Homo sapiens (Human), UniProt P21453); test: Human S1P1 Receptor Calcium FLIPR Antagonist Assay (HeLa Gα16 S1P1); format: cell-based; conditions: relative antagonism vs probing agonist GNF-AC-1 at EC80, HeLa-S1P1/Gα16 cells
human S1P1 receptors, sequence (P21453 whole entry): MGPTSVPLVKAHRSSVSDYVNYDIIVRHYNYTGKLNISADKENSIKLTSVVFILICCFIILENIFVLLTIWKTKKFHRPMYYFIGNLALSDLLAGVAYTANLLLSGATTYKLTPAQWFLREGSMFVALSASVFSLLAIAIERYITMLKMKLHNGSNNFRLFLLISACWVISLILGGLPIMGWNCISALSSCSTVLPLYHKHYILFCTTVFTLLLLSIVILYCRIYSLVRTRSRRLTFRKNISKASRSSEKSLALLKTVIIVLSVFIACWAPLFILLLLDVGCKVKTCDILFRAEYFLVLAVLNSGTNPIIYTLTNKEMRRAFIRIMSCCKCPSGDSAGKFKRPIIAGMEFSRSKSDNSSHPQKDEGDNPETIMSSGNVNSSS
Text: Human S1P1 Receptor Calcium FLIPR Antagonist Assay
The assay measures intracellular changes of Ca^2+ mediated by the synthetic probing agonist 3-{[2-(2-Trifluoromethyl-biphenyl-4-yl)-benzo[b]thiophen-5-ylmethyl]-amino}-propionic acid (GNF-AC-1) in the HeLa-S1P1/Gα16 cell clone 1: HeLa (human cervix carcinoma, ATCC CCL2) cells stably expressing N-terminally myc-tagged human S1P1 receptors (GenBank™ accession No. NM_001400; UNIPROT P21453) and promiscuous Gα16 protein (GenBank™ accession number M63904, Swissprot P30679) are cultured at 37° C., 5% CO2, and 95% relative humidity. The cells are plated in 384 well black plates (10′000 cells per well). After 24 hours the cells are loaded with Fluo-4-AM (1.6 μM in HBSS and 2.5 mM probenicid) for 1 hour at 37° C. After washing, the cells are transferred to the FLIPR. The test compounds are added at different concentrations (≦100 μM) in HBSS in the presence of 0.1% BSA and changes in fluorescence are recorded (indication of agonism). The probing agonist is added 20-30 minutes afterwards to the wells at a concentration giving 80% of the maximal activity (EC80). After each addition, time points are collected as follows: 20 time points (2 seconds) before the addition of the agonist (Fmin) and 60 time points (1 or 2 seconds) after the addition of the probing agonist. This allows the determination of the maximal fluorescence (Fmax). The ratio (Fmax−Fmin)/Fmin is plotted against the log of the concentration of the test compounds and the IC50 (relative antagonism) is calculated using the XLfit-4 software. […] A concentration-response curve of the probing agonist is determined on each plate in parallel.

| Structure (SMILES) | response vs control in vivo at 30 mg/kg [1] | IC50 (human S1P1 receptors) |
| --- | --- | --- |
| CC[C@@H](Nc1ccc(C)c(CN2CC(C(=O)O)C2)c1C)c1ccc(Cl)c(C)c1 [Example 33, 1-{3-[(R)-1-(4-Chloro-3-methyl-phenyl)-propylamino]-2,6-dimethyl-benzyl}-azetidine-3-carboxylic acid] | 16.2% | 0.6 nM |
| CC[C@@H](Nc1cc(CN2CC[C@@H](C(=O)O)C2)c(Cl)cn1)c1ccc(Cl)c(C)c1 [Example 55, (R)-1-{5-Chloro-2-[(R)-1-(4-chloro-3-methyl-phenyl)-propylamino]-pyridin-4-ylmethyl}-pyrrolidine-3-carboxylic acid] | 43.6% | 0.5 nM |
| CC[C@@H](Nc1ccc(Cl)c(CN2CC[C@@H](C(=O)O)C2)c1)c1cc(C)c(Cl)c(C)c1 [Example 43, (R)-1-{2-Chloro-5-[(R)-1-(4-chloro-3,5-dimethyl-phenyl)-propylamino]-benzyl}-pyrrolidine-3-carboxylic acid] | 21.8% | 0.8 nM |
| CC[C@@H](Nc1ccc(Cl)c(CN2CC(C(=O)O)C2)c1)c1ccc(Cl)c(C)c1 [Example 62, 1-{2-Chloro-5-[(R)-1-(4-chloro-3-methyl-phenyl)-propylamino]-benzyl}-azetidine-3-carboxylic acid] | 31.5% | 0.9 nM |
| Cc1cc([C@H](Nc2ccc(C)c(CN3CC[C@@H](C(=O)O)C3)c2)C(F)(F)F)ccc1Cl [Example 21, (R)-1-{5-[(S)-1-(4-Chloro-3-methyl-phenyl)-2,22-trifluoro-ethylamino]-2-methyl-benzyl}-pyrrolidine-3-carboxylic acid] | 17.8% | 1 nM |
| Cc1cc([C@H](Nc2ccc(C)c(CN3CC(C(=O)O)C3)c2C)C(F)(F)F)ccc1Cl [Example 31, 1-{3-[(S)-1-(4-Chloro-3-methyl-phenyl)-2,2,2-trifluoro-ethylamino]-2,6-dimethyl-benzyl}-azetidine-3-carboxylic acid] | 23.4% | 1 nM |
| CC[C@@H](Nc1ccc(C)c(CN2CC[C@@H](C(=O)O)C2)c1C)c1ccc(Cl)c(C)c1 [Example 32, (R)-1-{3-[(R)-1-(4-Chloro-3-methyl-phenyl)-propylamino]-2,6-dimethyl-benzyl}-pyrrolidine-3-carboxylic acid] | 17% | 0.8 nM |
| Cc1cc([C@H](Nc2ccc(Cl)c(CNCCC(=O)O)c2)C(F)(F)F)ccc1Cl [Example 52, 3-{2-Chloro-5-[(S)-1-(4-chloro-3-methyl-phenyl)-2,2,2-trifluoro-ethylamino]-benzylamino}-propionic acid] | – | 0.9 nM |
| CCc1ccc(N[C@H](CC)c2ccc(Cl)c(C)c2)cc1CN1CC(C(=O)O)C1 [Example 37, 1-{5-[(R)-1-(4-Chloro-3-methyl-phenyl)-propylamino]-2-ethyl-benzyl}-azetidine-3-carboxylic acid] | – | 2.5 nM |
| CC[C@@H](Nc1ccc(Cl)c(CN2CC(C)(C(=O)O)C2)c1)c1cc(C)c(Cl)c(C)c1 [Example 66, 1-{2-Chloro-5-[(R)-1-(4-chloro-3,5-dimethyl-phenyl)-propylamino]-benzyl}-3-methyl-azetidine-3-carboxylic acid] | 19.4% | – |
| CCC(Nc1ccc(C)c(CN2CC(C(=O)O)C2)c1)c1ccc(Cl)c(C)c1 (centres unmarked) [Example 4, 1-{5-[1-(4-Chloro-3-methyl-phenyl)-propylamino]-2-methyl-benzyl}-azetidine-3-carboxylic acid] | – | 0.2 nM |
| CC[C@@H](Nc1ccnc(CN2CC(C(=O)O)C2)c1)c1ccc(Cl)c(C)c1 [Example 78, 1-{4-[(R)-1-(4-Chloro-3-methyl-phenyl)-propylamino]-pyridin-2-ylmethyl}-azetidine-3-carboxylic acid] | – | 0.8 nM |
| Cc1cc(C(C)Nc2cccc(CN3CC(C(=O)O)C3)c2)ccc1Cl (centres unmarked) [Example 1, 1-{3-[1-(4-Chloro-3-methyl-phenyl)-ethylamino]-benzyl}-azetidine-3-carboxylic acid] | – | 14.7 nM |
